The values below come from patent publication US10577368B2 (The United States of America, as represented by the …, priority 2013, dated 2020).

The target of one data set is hA1AR (Homo sapiens (Human), UniProt P30542). Nature of the data set: Radioligand binding at hA1AR, CHO cell membranes, [3H]R-PIA. The conditions noted are these: read-out: hA1AR % inhibition.
The next data set has as its target hA2AAR (Homo sapiens (Human), UniProt P29274). The data set can be described thus: Radioligand binding at hA2AAR, HEK293 cell membranes, [3H]CGS21680. The conditions noted are these: read-out: hA2AAR % inhibition.
The next data set has as its target mA3AR (Mus musculus (Mouse), UniProt Q61618). Nature of the data set: Competition binding at mA3AR, HEK293 cell membranes.
In another data set the target is mA2AAR (Mus musculus (Mouse), UniProt Q60613). Nature of the data set: Competition binding at mA2AAR, HEK293 cell membranes. The conditions noted are these: read-out: A2AAR % inhibition, mouse data (m) (converted).
In data set [1] the test system is chronic constriction injury model of neuropathic pain. Nature of the data set: CCI model of neuropathic pain, reversal of mechano-allodynia. The class given is in vivo, mice. The conditions noted are these: for Max. effect Emax (% ± SEM) / Time of peak protection: ipsilateral hind paw; for Efficacy in reversing NP in vivo (of full reversal at peak effect): CCI model.

Data set [2] deals with Alpha 1B adrenergic receptor (Homo sapiens (Human), UniProt P35368). Nature of the data set: Off-target binding, α1B. An excerpt:
(§1) The results are set forth below.

Another data set has as its target α1D adrenergic receptor (Homo sapiens (Human), UniProt P25100). The data set can be described thus: Off-target binding, α1D.
Source text: as §1

The target in data set [3] is Alpha 2A adrenergic receptor (Homo sapiens (Human), UniProt P08913). The data set can be described thus: Off-target binding, α2A.
Source text: as §1

Data set [4] has as its target Alpha 2C adrenergic receptor (Homo sapiens (Human), UniProt P18825). The data set can be described thus: Off-target binding, α2C. The conditions noted are these: read-out: Ki at α2C.
Source text: as §1

The next data set has as its target SERT (Homo sapiens (Human), UniProt P31645). Nature of the data set: Off-target binding, SERT.
Source text: as §1

Another data set concerns the target human DAT (Homo sapiens (Human), UniProt Q01959). The data set can be described thus: Radioligand ([3H]WIN35428) binding at the dopamine transporter. The conditions noted are these: for Ki: off-target binding.
Data set [5] concerns muscarinic, adrenergic, dopamine, GABA, histamine, opiate, serotonin receptors and transporters. Nature of the data set: Off-target binding panel (receptors and transporters of Table 5). The conditions noted are these: for Interactions at other receptors of the off-target panel: 10 μM.
Source text: as §1

The nature of data set [6]: Stability in simulated fluids (gastric, intestinal). Format: in vitro ADME. An excerpt: In vitro stability parameters for selected compounds are set forth in Table 6, in accordance with an embodiment of the invention.
For data set [7], the system named is CYP1A2, CYP2C9, CYP2C19, CYP2D6, CYP3A4. Nature of the data set: Inhibition of 5 CYP isozymes. The class given is in vitro ADME. The conditions noted are these: human.
Data set [8] is described as follows: Stability in liver microsomes, human. The class given is in vitro ADME. The conditions noted are these: liver microsomes, read-out: Stability in liver microsomes (t1/2, min): Human. A general note: Liver microsomes are a subcellular fraction often used to study metabolism.
The nature of data set [9]: Stability in liver microsomes, rat. Format: in vitro ADME. The conditions noted are these: liver microsomes, read-out: Stability in liver microsomes (t1/2, min): Rat.
Data set [10] can be described thus: Stability in liver microsomes, mouse. Format: in vitro ADME. The conditions noted are these: liver microsomes, read-out: Stability in liver microsomes (t1/2, min): Mouse.
Another data set concerns the target mA1AR (Mus musculus (Mouse), UniProt Q60612). Nature of the data set: Competition binding at mA1AR, HEK293 cell membranes. The conditions noted are these: read-out: A1AR % inhibition, mouse data (m).
Another data set has as its target r Sigma 1 (Rattus norvegicus (Rat), UniProt Q9R0C9). The data set can be described thus: Off-target binding, Sigma-1.
Source text: as §1

A further data set addresses r Sigma 2 (Rattus norvegicus (Rat), UniProt Q5U3Y7). The data set can be described thus: Off-target binding, Sigma-2.
Source text: as §1

A further data set deals with PBR (Homo sapiens (Human), UniProt P30536). The data set can be described thus: Off-target binding, PBR. The conditions noted are these: at 10 μM.
Source text: as §1

A short description of another data set: Aqueous solubility. Format: physicochemical.
The nature of data set [11]: % Unbound in plasma, mouse. Format: in vitro ADME.
For data set [12], the system named is chronic constriction injury (CCI) model, mechano-allodynia. The data set can be described thus: Morphine analgesic tolerance in CCI model, co-administration with A3AR agonist. The class given is in vivo, mice.
The nature of data set [13]: Bioavailability / plasma pharmacokinetics. Format: in vivo. The conditions noted are these: rat, male SD rats. Here is the method: Male SD rats were dosed intravenously at 1 mg/kg and orally at 1, 3, and 10 mg/kg. Plasma concentration as a function of time is depicted in FIG. 15.
In data set [14] the test system is C57BL/6J mice. The conditions noted are these: mouse, in vivo, 50 mg/kg.
Data set [15] deals with C57BL/6J mice. The data set can be described thus: Acute liver toxicity, oral gavage. The conditions noted are these: 50 mg/kg oral gavage, 24 h.
The subject of a further data set is morphine-dependent rats. The conditions noted are these: naloxone-precipitated withdrawal in morphine-dependent rats; cited from earlier work.
The next data set relates to Sprague Dawley rats. Nature of the data set: Toxicity of MRS5698 dosed by gavage. Format: in vivo, rat. The conditions noted are these: up to 150 mg/kg by gavage. As for the experimental part:
The formulation was dosed at up to 150 mg/kg by gavage to Sprague Dawley rats.

In data set [16] the test system is 5 CYP isozymes (1A2, 2C9, 2C19, 2D6, 3A4). The data set can be described thus: Inhibition of 5 CYP isozymes. Format: in vitro ADME.
Where [17] appears, read: simulated gastric fluid, read-out: Stability in simulated fluids (t1/2, min): Gastric.
Where [18] appears, read: simulated intestinal fluid, read-out: Stability in simulated fluids (t1/2, min): Intestinal.

What is called inhibition is the change of the read-out against control, counted positive when it falls. Usually Ki stands for the equilibrium dissociation constant of an inhibitor or competing ligand from its target. Broadly, the IC50 is the point on the concentration scale where inhibition reaches its midpoint. High values mean weaker potency in that assay, low ones greater potency in that assay.

Where two headings read alike, the source gives them in different places. A value given as a limit tells only on which side of the number the result lay.

human DAT, sequence (Q01959 whole entry): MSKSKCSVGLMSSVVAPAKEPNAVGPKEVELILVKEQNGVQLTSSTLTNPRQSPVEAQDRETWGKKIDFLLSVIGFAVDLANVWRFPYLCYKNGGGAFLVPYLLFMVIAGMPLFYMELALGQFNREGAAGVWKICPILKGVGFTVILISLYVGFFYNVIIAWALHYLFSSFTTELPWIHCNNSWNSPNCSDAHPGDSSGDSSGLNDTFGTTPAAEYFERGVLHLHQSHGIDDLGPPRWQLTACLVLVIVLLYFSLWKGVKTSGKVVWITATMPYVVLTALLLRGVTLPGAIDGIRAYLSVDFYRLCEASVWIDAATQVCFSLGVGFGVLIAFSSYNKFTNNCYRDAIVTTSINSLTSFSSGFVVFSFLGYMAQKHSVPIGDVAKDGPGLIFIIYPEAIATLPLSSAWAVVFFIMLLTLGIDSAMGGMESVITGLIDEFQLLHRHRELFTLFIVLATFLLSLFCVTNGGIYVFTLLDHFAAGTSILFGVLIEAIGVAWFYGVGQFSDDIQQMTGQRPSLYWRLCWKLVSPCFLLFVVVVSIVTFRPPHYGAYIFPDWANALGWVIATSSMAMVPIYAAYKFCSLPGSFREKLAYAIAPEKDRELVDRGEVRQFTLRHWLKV
mA2AAR, sequence (Q60613 whole entry): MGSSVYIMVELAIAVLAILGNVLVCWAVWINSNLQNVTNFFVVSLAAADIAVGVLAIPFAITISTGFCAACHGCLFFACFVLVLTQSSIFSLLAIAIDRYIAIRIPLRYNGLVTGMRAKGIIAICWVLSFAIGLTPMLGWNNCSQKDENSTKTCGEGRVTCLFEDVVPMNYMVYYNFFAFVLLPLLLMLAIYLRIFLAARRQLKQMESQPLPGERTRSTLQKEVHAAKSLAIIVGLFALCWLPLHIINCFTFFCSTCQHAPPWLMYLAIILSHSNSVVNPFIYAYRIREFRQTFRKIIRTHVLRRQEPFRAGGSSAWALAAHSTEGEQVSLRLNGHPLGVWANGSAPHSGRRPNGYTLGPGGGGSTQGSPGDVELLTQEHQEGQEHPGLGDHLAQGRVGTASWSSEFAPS
r Sigma 2, sequence (Q5U3Y7 whole entry): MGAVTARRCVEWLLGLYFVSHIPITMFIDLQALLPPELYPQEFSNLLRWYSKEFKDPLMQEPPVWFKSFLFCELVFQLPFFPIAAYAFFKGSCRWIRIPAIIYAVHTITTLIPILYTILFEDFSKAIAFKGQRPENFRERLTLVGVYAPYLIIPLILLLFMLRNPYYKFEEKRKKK
r Sigma 1, sequence (Q9R0C9 whole entry): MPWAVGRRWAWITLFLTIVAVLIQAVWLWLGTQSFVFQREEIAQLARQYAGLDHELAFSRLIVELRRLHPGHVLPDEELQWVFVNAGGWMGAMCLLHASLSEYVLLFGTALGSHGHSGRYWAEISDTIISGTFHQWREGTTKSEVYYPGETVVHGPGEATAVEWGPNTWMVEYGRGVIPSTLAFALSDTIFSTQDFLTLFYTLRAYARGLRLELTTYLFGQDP
Alpha 1B adrenergic receptor, sequence (P35368 whole entry): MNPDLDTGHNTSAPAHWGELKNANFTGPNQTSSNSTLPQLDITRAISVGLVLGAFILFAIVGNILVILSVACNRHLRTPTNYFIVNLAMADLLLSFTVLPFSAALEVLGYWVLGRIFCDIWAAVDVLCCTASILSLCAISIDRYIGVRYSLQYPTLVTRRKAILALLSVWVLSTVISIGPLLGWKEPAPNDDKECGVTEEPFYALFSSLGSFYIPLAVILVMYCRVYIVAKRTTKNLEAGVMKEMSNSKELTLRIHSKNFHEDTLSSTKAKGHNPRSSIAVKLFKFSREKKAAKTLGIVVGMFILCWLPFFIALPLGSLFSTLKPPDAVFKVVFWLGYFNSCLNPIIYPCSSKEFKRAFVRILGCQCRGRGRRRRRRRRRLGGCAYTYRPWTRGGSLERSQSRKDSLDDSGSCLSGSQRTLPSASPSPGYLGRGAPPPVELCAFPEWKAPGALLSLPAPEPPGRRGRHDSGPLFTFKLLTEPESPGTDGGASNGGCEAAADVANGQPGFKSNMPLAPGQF
SERT, sequence (P31645 whole entry, species assumed): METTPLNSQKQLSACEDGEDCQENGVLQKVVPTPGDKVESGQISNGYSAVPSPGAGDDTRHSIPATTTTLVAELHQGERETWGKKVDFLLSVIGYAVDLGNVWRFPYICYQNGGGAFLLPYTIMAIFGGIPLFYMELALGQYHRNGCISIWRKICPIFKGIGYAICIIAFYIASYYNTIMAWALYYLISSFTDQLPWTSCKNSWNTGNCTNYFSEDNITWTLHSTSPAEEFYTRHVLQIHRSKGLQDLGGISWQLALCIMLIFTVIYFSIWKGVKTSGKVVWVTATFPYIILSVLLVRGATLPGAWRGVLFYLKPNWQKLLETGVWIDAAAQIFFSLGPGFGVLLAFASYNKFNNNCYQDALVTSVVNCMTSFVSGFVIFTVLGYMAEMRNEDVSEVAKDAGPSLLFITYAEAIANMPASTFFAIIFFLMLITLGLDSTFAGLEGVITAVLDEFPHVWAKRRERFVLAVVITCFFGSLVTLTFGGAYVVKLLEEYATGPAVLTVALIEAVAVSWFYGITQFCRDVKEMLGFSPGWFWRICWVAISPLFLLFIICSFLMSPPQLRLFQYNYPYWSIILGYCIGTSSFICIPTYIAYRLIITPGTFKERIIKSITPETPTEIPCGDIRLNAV
hA2AAR, sequence (P29274 whole entry): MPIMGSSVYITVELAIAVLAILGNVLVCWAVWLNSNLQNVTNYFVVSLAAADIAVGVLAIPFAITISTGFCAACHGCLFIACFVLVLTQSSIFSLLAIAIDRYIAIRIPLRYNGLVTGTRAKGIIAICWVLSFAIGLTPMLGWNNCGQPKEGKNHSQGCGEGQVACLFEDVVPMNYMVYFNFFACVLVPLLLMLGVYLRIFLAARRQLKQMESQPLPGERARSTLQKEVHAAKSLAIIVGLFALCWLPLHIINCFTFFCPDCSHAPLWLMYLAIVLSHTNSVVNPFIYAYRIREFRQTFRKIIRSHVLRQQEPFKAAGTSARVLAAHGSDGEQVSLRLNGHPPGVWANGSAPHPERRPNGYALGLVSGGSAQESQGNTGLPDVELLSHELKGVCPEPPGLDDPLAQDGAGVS
hA1AR, sequence (P30542 whole entry): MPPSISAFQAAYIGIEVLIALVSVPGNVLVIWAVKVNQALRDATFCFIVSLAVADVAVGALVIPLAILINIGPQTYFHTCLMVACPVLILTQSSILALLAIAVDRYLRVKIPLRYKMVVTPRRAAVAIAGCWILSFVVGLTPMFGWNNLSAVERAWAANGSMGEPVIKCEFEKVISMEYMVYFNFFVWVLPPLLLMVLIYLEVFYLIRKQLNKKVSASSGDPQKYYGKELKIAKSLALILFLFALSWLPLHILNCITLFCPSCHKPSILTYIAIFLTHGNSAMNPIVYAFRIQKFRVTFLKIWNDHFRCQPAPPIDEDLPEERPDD
PBR, sequence (P30536 whole entry, species assumed): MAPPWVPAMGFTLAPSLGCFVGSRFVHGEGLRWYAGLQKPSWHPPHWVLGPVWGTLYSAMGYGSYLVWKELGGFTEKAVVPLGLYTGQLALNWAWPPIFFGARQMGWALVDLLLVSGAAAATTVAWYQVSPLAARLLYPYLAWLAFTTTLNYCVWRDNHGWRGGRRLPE
Alpha 2C adrenergic receptor, sequence (P18825 whole entry): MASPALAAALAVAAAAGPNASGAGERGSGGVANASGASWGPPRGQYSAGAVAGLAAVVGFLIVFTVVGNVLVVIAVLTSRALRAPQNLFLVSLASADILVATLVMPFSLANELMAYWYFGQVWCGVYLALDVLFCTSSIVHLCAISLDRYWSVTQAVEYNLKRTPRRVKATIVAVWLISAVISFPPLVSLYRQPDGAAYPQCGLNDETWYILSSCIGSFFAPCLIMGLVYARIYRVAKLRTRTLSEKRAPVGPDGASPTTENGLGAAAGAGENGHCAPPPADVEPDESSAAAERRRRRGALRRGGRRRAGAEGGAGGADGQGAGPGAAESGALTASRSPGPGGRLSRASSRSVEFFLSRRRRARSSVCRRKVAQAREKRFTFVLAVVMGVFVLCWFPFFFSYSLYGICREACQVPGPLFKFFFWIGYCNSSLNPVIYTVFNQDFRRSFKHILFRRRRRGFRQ
Alpha 2A adrenergic receptor, sequence (P08913 whole entry): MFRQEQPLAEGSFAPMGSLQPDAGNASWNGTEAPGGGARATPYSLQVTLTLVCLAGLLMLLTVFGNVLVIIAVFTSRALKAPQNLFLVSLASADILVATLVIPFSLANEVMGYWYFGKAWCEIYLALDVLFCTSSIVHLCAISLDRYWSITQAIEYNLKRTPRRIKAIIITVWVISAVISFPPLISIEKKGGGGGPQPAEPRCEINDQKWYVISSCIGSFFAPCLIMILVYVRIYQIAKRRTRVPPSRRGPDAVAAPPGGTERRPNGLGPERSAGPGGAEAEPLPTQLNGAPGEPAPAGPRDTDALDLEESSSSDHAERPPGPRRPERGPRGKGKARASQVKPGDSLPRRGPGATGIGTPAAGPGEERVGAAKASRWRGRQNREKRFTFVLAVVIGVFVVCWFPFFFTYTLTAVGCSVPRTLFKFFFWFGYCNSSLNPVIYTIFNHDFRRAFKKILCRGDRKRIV
mA3AR, sequence (Q61618 whole entry): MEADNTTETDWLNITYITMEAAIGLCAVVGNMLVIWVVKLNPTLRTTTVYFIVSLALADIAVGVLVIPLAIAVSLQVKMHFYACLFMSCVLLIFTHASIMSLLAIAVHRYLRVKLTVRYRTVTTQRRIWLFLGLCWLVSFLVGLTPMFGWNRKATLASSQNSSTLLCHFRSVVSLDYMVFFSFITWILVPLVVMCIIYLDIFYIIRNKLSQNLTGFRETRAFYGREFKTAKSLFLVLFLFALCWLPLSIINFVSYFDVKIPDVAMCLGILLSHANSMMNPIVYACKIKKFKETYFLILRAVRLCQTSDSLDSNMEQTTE

In the case of `CNC(=O)[C@@]12C[C@@H]1[C@@H](n1cnc3c(NC)nc(C#Cc4cnccn4)nc31)[C@H](O)[C@@H]2O` [Compound 7, (1S,2R,3S,4R,5S)-2,3-Dihydroxy-N-methyl-4-(6-(methylamino)-2-(pyrazin-2-ylethynyl)-9H-purin-9-yl)bicyclo[3.1.0]hexane-1-carboxamide], the inhibition at 10 µM at hA1AR is 37%; on hA2AAR, 25 ± 9%; at mA2AAR it was 12%. Further, the Ki at mA3AR was 0.068 ± 0.005 µM; in data set [2] (read-out: Ki at α1B), 9.4 µM; in data set [2] (read-out: Ki class at α1B), 1 to 10 µM; at α1D adrenergic receptor, 4.3 µM; in data set [3], 7.9 µM; in data set [4], 6.8 µM. The inhibition constant Ki at SERT (read-out: Ki at SERT) is > 10 µM; at SERT (read-out: Ki class at SERT), > 10 µM; at human DAT (read-out: Ki at DAT), 1.8 µM; at human DAT (read-out: Ki class at DAT), 1 to 10 µM. For the same compound, the “Max. effect Emax (% ± SEM)” value in [1] (3 μmol/kg p.o., mice) was found to be 100 ± 0.0%. Also, in data set [1] (3 μmol/kg p.o., mice), the “Time of peak protection” value was determined as 1 h. Further, the “Efficacy in reversing NP in vivo (of full reversal at peak effect)” value in data set [1] is given as ~100%. Besides, the “Off-target effects compared with MRS5698 and MRS5676” value in data set [5] is reported as “significantly fewer off-target effects”. Besides, in data set [5], the “Interactions at other receptors of the off-target panel” value (“Interactions at other receptors” below) is “No interactions at other receptors”. The half-life in data set [6] (setting [17]) was > 480 min; in [6] (setting [18]), > 480 min; in [8], 236 min; in data set [9], > 145 min; in data set [10], > 145 min. The concentration for half-maximal inhibition (IC50) in data set [7] was > 10 µM.
As for `CNC(=O)[C@@]12C[C@@H]1[C@@H](n1cnc3c(NC)nc(C#Cc4ccc(Cl)s4)nc31)[C@H](O)[C@@H]2O` [Compound 32, (1S,2R,3S,4R,5S)-4-(2-((5-Chlorothiophen-2-yl)ethynyl)-6-(methylamino)-9H-purin-9-yl)-2,3-dihydroxy-N-methylbicyclo[3.1.0]hexane-1-carboxamide], the inhibition at 10 µM at hA1AR was 6%; at hA2AAR, 24%; at mA1AR, 38%; on mA2AAR, 7%; on r Sigma 1 (at 10 μM), 60 to 70%; on r Sigma 2 (at 10 μM), 60 to 70%. On PBR, this compound displayed an inhibition at 10 µM of 60 to 70%. Further, the “Effect at 3 h (% ± SEM)” value in [1] (3 μmol/kg p.o., mice, 3 h) was determined as 83 ± 11%. Further, the “Max. effect Emax (% ± SEM)” value in data set [1] (3 μmol/kg p.o., mice) is given as 93 ± 7%. Moreover, the “Time of peak protection” value in data set [1] (3 μmol/kg p.o., mice) lay in the range of 0.5 to 3 h. Besides, the “Efficacy in reversing NP in vivo (of full reversal at peak effect)” value in [1] was ~100%. Moreover, the Ki at r Sigma 1 (off-target binding) came to 1.4 µM; at r Sigma 2 (off-target binding, read-out: Ki at Sigma-2 (σ2)), 0.63 µM. For the same compound, at human DAT (10 μM), the “Increase of the level of radioligand ([3H]WIN35428) binding at the human DAT” value worked out at 556%. In addition, at human DAT (compound at 10 μM), the “Enhancement of radioligand binding at the dopamine transporter” value is on record as ~5 ×. In addition, in data set [5], the “Off-target effects compared with MRS5698 and MRS5676” value was “significantly fewer off-target effects”. Also, the “Interactions at other receptors” value in [5] is given as “No interactions”. Also, in the data set “Aqueous solubility”, the “Aq. Solubility (pH 7.4, μg/mL)” value came out at 16.8 ± 1.1 μg/mL. In addition, the half-life in [6] (setting [17]) is > 480 min; in data set [6] (setting [18]) it was > 480 min; in data set [8], 230 min; in [9] it was 128 min; in data set [10], 143 min; in data set [13] (iv, i.v. 1 mg/kg), 0.7 ± 0.3 h. Besides, the half-life in data set [13] (po, p.o. 1 mg/kg) is 3.6 ± 0.4 h; in [13] (po, p.o. 3 mg/kg), 5.3 ± 0.8 h; in data set [13] (po, p.o. 10 mg/kg), 7.8 ± 2 h. Besides, in data set [11], the “% Unbound in plasma: Mouse” value came out at 6.40%. Besides, in [7], the concentration for half-maximal inhibition (IC50) is > 10 µM. Besides, in data set [12], the “Analgesic effect of the A3AR agonist dose per se” value is listed as “no analgesic effects per se”. The “Effect on opioid-induced hypersensitivity and analgesic tolerance” value in data set [12] (mouse, in vivo) is “block opioid-induced hypersensitivity and analgesic tolerance”. The Cmax was 63 ± 19 nM in [13] (po, p.o. 1 mg/kg, read-out: Cmax nM); 29 ± 8.6 ng/mL in [13] (po, p.o. 1 mg/kg, read-out: Cmax ng/ml); 101 ± 53 nM in data set [13] (po, p.o. 3 mg/kg, read-out: Cmax nM); 47 ± 24 ng/mL in data set [13] (po, p.o. 3 mg/kg, read-out: Cmax ng/ml); 711 ± 125 nM in [13] (po, p.o. 10 mg/kg, read-out: Cmax nM); 326 ± 57 ng/mL in data set [13] (po, p.o. 10 mg/kg, read-out: Cmax ng/ml). Besides, in the data set with C57BL/6J mice [14], the Acute liver toxicity result is on record as “no acute liver toxicity”. The “GSH and GSSG levels in liver” value in the data set with C57BL/6J mice [15] was “no alteration”. For the same compound, the Liver histology result in the data set on C57BL/6J mice [15] is reported as “remained normal”.
For `CNC(=O)[C@H]1O[C@@H](n2cnc3c(NCc4cccc(I)c4)ncnc32)[C@H](O)[C@@H]1O` [IB-MECA], in the data set on morphine-dependent rats, the “Effect on opioid dependence” value is reported as “block opioid dependence”.
For `CNC(=O)[C@@]12C[C@@H]1[C@@H](n1cnc3c(NCc4cccc(Cl)c4)nc(C#Cc4ccc(F)c(F)c4)nc31)C(O)[C@H]2O` (stereo partly shown) [MRS5698, reference compound], the “Findings after oral dosing” value in the data set on Sprague Dawley rats is on record as “No abnormal findings”. For the same compound, the “Interaction with DAT” value at human DAT is reported as “does not interact with DAT”. Further, the “Interactions at other receptors” value in data set [5] is on record as “No interactions at other receptors”. The “Analgesic effect of the A3AR agonist dose per se” value in [12] is on record as “no analgesic effects per se”.
Take `CNC(=O)[C@]12CC1[C@@H](n1cnc3c(NC)nc(C#Cc4ccc(Br)s4)nc31)[C@H](O)C2O` (stereo partly shown) [compound 100]: in [16], the concentration for half-maximal inhibition (IC50) is > 7 µM.
